According to publication PMC5458272:
Like-named read-outs stand apart in the source and are kept apart here. Values belong to the molecule of their own block, whether it stands above or below them.

Columns and labels:
Aurora-A/TPX2 complex = molecular target: T1, Aurora-A/TPX2 complex (Homo sapiens, UniProt O14965); assay: SPR competition between GST-TPX2-1-43 and compounds for Aurora-A binding; settings: for Interference with TPX2 binding to Aurora-A (in words): SPR competition
T1 construct: His-tag (N); host or cells: Escherichia coli BL21(DE3)
T1 sequence (O14965 1-403): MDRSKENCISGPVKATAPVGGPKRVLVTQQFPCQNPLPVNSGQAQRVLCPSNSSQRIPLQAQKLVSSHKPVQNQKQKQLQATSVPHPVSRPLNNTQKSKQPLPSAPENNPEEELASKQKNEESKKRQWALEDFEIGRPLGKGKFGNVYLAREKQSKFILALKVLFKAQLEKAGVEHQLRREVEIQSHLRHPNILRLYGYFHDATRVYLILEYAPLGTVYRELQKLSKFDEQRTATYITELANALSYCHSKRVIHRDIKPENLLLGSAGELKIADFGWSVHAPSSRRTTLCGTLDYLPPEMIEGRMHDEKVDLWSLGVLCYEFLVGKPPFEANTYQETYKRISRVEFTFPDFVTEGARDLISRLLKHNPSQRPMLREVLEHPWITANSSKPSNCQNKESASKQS
Experimental: (§4) TPX2 in running buffer was injected at different concentrations (ranging from 10 nM to 5 μM), in order to determine the affinity constant of the interaction between Aurora-A and TPX2 and the conditions of the competition experiments (flow rate= 30 μl/min). […] IC50 were calculated on the basis of the RU value at each inhibitor concentration (10 sec after the end of each association sensorgram) since TPX2 binding signal decreases by increasing inhibitor concentration. Both rapid binding and rapid dissociation of inhibitors were subtracted from the sensorgrams.

Aurora-A [1] = molecular target: T2, Aurora-A (Homo sapiens, UniProt O14965); assay: FastStep SPR direct binding of compounds to immobilized Aurora-A; parameters: His-tag (N); host or cells: Escherichia coli BL21(DE3); settings: for Kd: SPR, Aurora-A immobilized on COOH5 sensorchip, affinities from Scatchard plots, ± standard error of best-fit, low affinity given as >100 μM
T2 sequence (O14965 1-403): T1 sequence (O14965 1-403)
Experimental: We evaluated the interaction of the selected compounds with Aurora-A immobilized on a COOH5 sensorchip by FastStep Surface Plasmon Resonance (SPR) experiments. Sensorgrams were obtained using Aurora-A as ligand and injecting increasing concentrations of the inhibitors (see Materials and Methods) as analytes in running buffer (Figure 3A).
SPR experiments were carried out using a SensiQ Pioneer apparatus. The sensor chip (COOH5, with a hydrogel-based sensing surface endowed with high binding capacity) was chemically activated by a 35 μl injection of a 1:1 mixture of 200 mM N-ethyl-N’-(3-[…]) carbodiimide and 50 mM N-hydroxysuccinimide at a flow rate of 5 μl/min. Aurora-A was immobilized on the activated sensor chip via amine coupling. The immobilization was carried out in 20 mM sodium acetate at pH 4.5; the remaining ester groups were blocked by injecting 1 M ethanolamine hydrochloride (35 μl).
Compounds for testing were purchased from Ambinter (Paris, France). […] Compounds were injected onto the sensor chip at a constant flow in FastStep injection experiments, in order to rapidly obtain information on the binding of the analyte at different concentrations, with a single dissociation phase. […] At least two independent experiments were performed and averaged for each series of injections. The interaction of immobilized Aurora-A ligand with the inhibitor compounds was detected through mass concentration-dependent changes in the refractive index on the sensor chip surface, expressed as RUs.

[2] = tested on: U2OS osteosarcoma cell line; assay: Immunofluorescence of mitotic spindle structure in synchronized U2OS cells; format: cell-based, human; settings: 10 μM, added 6 hours after thymidine release, fixed after further 4 hours, alpha-tubulin staining
Experimental: (§1) We next wished to examine how compounds displaying inhibitory activity on the Aurora-A/TPX2 complex formation in vitro affected mitosis in human cells. […] C20 and C23 were tested in the U2OS osteosarcoma cell line, in which we previously characterized significant mitotic defects after Alisertib-dependent Aurora-A inhibition. Briefly, U20S cells were arrested at the G1/S transition by thymidine treatment, released in fresh medium to progress through S and G2 phases, then treated with either C20 or C23 (10 μM) 6 hours after thymidine release (Figure 6A). […] Defects were scored in prometa- and metaphases and included completely disorganized spindles (Figure 6A, second panel), or spindles with supernumerary poles (Figure 6A, third and fourth panel), as typically observed under impaired Aurora-A function. To directly assess the extent of Aurora-A activation we measured Aurora-A auto-phosphorylation on Thr 288. […]
(§2) The human U2OS osteosarcoma cell line (ATCC: HTB-96) was grown at 37°C in a 5% CO2 atmosphere in DMEM, supplemented with 10% fetal bovine serum. […] After further 4 hours cells were harvested and analyzed. […]
(§3) Cells grown on poly-lysine-coated coverslips were fixed with cold methanol, 6 min at -20°C. […] Samples were analyzed using a Nikon Eclipse 90i microscope equipped with a Qicam Fast 1394 CCD camera (QImaging). […]

p-Thr288-Aurora-A = assay: Immunofluorescence of Aurora-A auto-phosphorylation on Thr 288 in U2OS prometaphases; format: cell-based, human; settings: thymidine arrest/release, monastrol added 2 hours before fixation
Experimental: as §1, §2, §3

Aurora-A [3] = molecular target: T2, Aurora-A; assay: SPR binding of GST-TPX2-1-43 or GST alone to immobilized Aurora-A; settings: GST alone as control analyte
Experimental: as §4

Molecule: O=C(Nc1cccc2ncccc12)c1ccc2c(c1)OCCCO2 [C03]
Kd (Aurora-A [1]; Kd): > 100 µM

Molecule: O=C1Nc2ccccc2/C1=N\NC(=O)C1COc2ccccc2O1 (centres unmarked) [C04]
Kd (Aurora-A [1]; Kd): 100 µM

Molecule: O=C1Nc2ccc(F)cc2/C1=N\NC(=O)c1ccc2c(c1)OCO2 [C05]
Kd (Aurora-A [1]; Kd): > 100 µM

Molecule: O=C1Cc2cc(S(=O)(=O)Nc3ccccc3C(=O)O)ccc2N1 [C06]
Kd (Aurora-A [1]; Kd): > 100 µM

Molecule: CN1/C(=C\c2cccc3[nH]ccc23)C(=O)c2ccccc2S1(=O)=O [C08]
Kd (Aurora-A [1]; Kd): 80 ± 30 µM

Molecule: Cc1oc2cc(OCC(N)=O)ccc2c(=O)c1-c1ccc(Cl)cc1 [C09]
Kd (Aurora-A [1]; Kd): 80 ± 15 µM

Molecule: O=C(Nc1ccc2c(c1)CN(C(=O)c1ccco1)CC2)c1ccc(-c2ccccc2)cc1 [C12]
IC50 (Aurora-A/TPX2 complex): > 100 µM | Interference with TPX2 binding to Aurora-A (in words) (Aurora-A/TPX2 complex; 1 μM GST-TPX2-1-43): did not influence the Aurora-A/TPX2 complex formation | Kd (Aurora-A [1]; Kd): > 100 µM | Aurora-A binding (in words) (Aurora-A [1]; SPR direct binding): no Aurora-A binding properties

Molecule: CCn1c(NC(=O)CCn2c(-c3ccc(OC)cc3)n[nH]c2=S)nc2ccccc21 [C13]
Kd (Aurora-A [1]; Kd): > 100 µM

Molecule: COc1cc(NC(=S)NC(=O)c2cccc(F)c2)ccc1NC(=O)c1cc2ccccc2o1 [C20]
IC50 (Aurora-A/TPX2 complex): 20 ± 10 µM | Mitotic spindle defects in prometa- and metaphases [2]: aberrant mitotic spindles | p-Thr288-Aurora-A signal compared to controls (p-Thr288-Aurora-A): highly significant reduction | Kd (Aurora-A [1]; Kd): 30 ± 15 µM

Molecule: COc1ccc(-c2n[nH]c(=S)n2CCC(=O)Nc2ccc3nc(N4CCCC4)sc3c2)cc1 [C24]
Kd (Aurora-A [1]; Kd): > 100 µM

Molecule: GST: Recombinant GST protein alone, from Sigma (SRP5348), control analyte
Kd (Aurora-A [3]): > 5 µM

Second part, led by results:

Interference with TPX2 binding to Aurora-A (in words) (Aurora-A/TPX2 complex; 1 μM GST-TPX2-1-43): does not compete with TPX2 binding
Molecule: COc1cc(Nc2ncc3c(n2)-c2ccc(Cl)cc2C(c2c(F)cccc2OC)=NC3)ccc1C(=O)O [Alisertib, reference compound]
Interference with TPX2 binding to Aurora-A (in words) (Aurora-A/TPX2 complex; 500 nM GST-TPX2-1-43, Supplementary Figure 2): does not interfere with TPX2 binding to Aurora-A

Kd (Aurora-A [1]; Kd): > 100 µM
Molecule: O=C1Nc2ccccc2/C1=N\NC(=O)c1cccc2ccccc12 [C01]

IC50 (Aurora-A/TPX2 complex; read-out: IC50): 40 ± 10 µM | Kd (Aurora-A [1]; read-out: Kd): 42 ± 9 µM
Molecule: O=C1Nc2ccccc2/C1=N/NC(=O)c1ccc2ccccc2n1 [C02]

Kd (Aurora-A [1]; Kd): > 100 µM
Molecule: Cc1ccc2c(c1)/C(=N\NC(=O)C1COc3ccccc3O1)C(=O)N2 (centres unmarked) [C07]

Kd (Aurora-A [1]; Kd): > 100 µM
Molecule: CNC(=O)C1CN(C(=O)c2ccc3ccccc3c2)c2ccccc2O1 (centres unmarked) [C10]

Kd (Aurora-A [1]; Kd): > 100 µM
Molecule: O=C(NCC1Cc2cccc(-c3ccncc3)c2O1)c1ccccc1F (centres unmarked) [C11]

Kd (Aurora-A [1]; Kd): > 100 µM
Molecule: O=C(NCCOc1ccc(-c2ccc(F)cc2)nn1)C1c2ccccc2Oc2ccccc21 [C14]

Kd (Aurora-A [1]; Kd): > 100 µM
Molecule: CC1=NC2=C(C(=O)CC(c3ccccc3)C2)C(c2ccccn2)C1C(=O)Nc1ccc(F)cc1 (centres unmarked) [C15]

Kd (Aurora-A [1]; Kd): > 100 µM
Molecule: CC1=C(C(=O)Nc2cccc(F)c2)[C@H](c2ccccn2)C2=C(C[C@H](c3ccccc3)CC2=O)N1 [C16]

Kd (Aurora-A [1]; Kd): > 100 µM
Molecule: CC1=NC2=C(C(=O)CC(c3cccs3)C2)C(c2ccccn2)C1C(=O)Nc1ccc(F)cc1 (centres unmarked) [C17]

Kd (Aurora-A [1]; read-out: Kd): > 100 µM
Molecule: CC1=NC2=C(C(=O)CC(c3cccs3)C2)C(c2ccccn2)C1C(=O)Nc1cccc(F)c1 (centres unmarked) [C18]

Kd (Aurora-A [1]; Kd): > 100 µM
Molecule: COc1cc(/C=C2\C(=O)Nc3ccccc32)c(Br)cc1OCc1ccccc1C#N [C19]

Kd (Aurora-A [1]; Kd): > 100 µM
Molecule: O=C(COc1ccc2[nH]c3ccccc3c(=O)c2c1)N1c2ccccc2OCC1c1ccccc1 (centres unmarked) [C21]

IC50 (Aurora-A/TPX2 complex; read-out: IC50): > 100 µM | Kd (Aurora-A [1]; read-out: Kd): 15 ± 6 µM
Molecule: CC1=C(/C(O)=N/c2ccc(F)cc2F)[C@H](c2cccnc2)C2=C(C[C@@H](c3ccccc3)CC2=O)N1 [C22]
Interference with TPX2 binding to Aurora-A (in words) (Aurora-A/TPX2 complex; 1 μM GST-TPX2-1-43): did not interfere with the formation of the Aurora-A/TPX2 complex

IC50 (Aurora-A/TPX2 complex; read-out: IC50): 30 ± 8 µM | Kd (Aurora-A [1]; read-out: Kd): 12 ± 5 µM
Molecule: COc1ccc(CNC(=O)C(C)Oc2ccc3c(c2)c2ccnc4c5ccccc5c(=O)n3c24)cc1 (centres unmarked) [C23]
Mitotic spindle defects in prometa- and metaphases [2]: aberrant mitotic spindles | p-Thr288-Aurora-A signal compared to controls (p-Thr288-Aurora-A): highly significant reduction

IC50 (Aurora-A/TPX2 complex; read-out: IC50): 40 ± 10 µM | Kd (Aurora-A [1]; read-out: Kd): 12 ± 6 µM
Molecule: CC(Oc1ccc2c(c1)c1ccnc3c4ccccc4c(=O)n2c13)C(=O)NCc1ccc2c(c1)OCO2 (centres unmarked) [C25]
